The values below come from ChEMBL document CHEMBL1158352, “Development of CoMFA and CoMSIA models of cytotoxicity data of anti-HIV-1-phenylamino-1H-imidazole derivatives” (Eur J Med Chem, 2009).

One may read the CC50 as the concentration giving 50% cytotoxicity. The low end stands for harm at low concentration, the high end for better tolerance by the cells.

Each structure is given as a SMILES string.

The nature of this data set: Cytotoxicity against human MT4 cells. In kind it is cell-based.
Regarding `Cc1[nH]c(=S)n(Nc2cccc(Cl)c2)c1-c1cccc(Cl)c1`, the CC50 stood at 31 µM. For `Cc1nc(S)n(Nc2cccc3ccccc23)c1-c1ccccc1`, the 50% cytotoxic concentration (CC50) was 12 µM. For `Cc1[nH]c(=S)n(Nc2ccc(Cl)cc2)c1-c1ccccc1`, the CC50 was 135 µM. With `Cc1[nH]c(=S)n(Nc2ccc(F)cc2)c1-c1ccccc1` the figure was 220 µM; with `COc1ccc(-c2c(C)[nH]c(=S)n2Nc2cccc(Cl)c2)cc1`, 38.7 µM; with `Cc1[nH]c(=S)n(Nc2cccc(Cl)c2)c1-c1ccc(Cl)cc1`, 40.8 µM. With `Cc1c(-c2ccccc2)nc(S)n1Nc1cccc(Cl)c1` the figure was 50 µM; with `Cc1[nH]c(=S)n(Nc2cccc(Cl)c2)c1-c1cccc(Br)c1`, 44 µM; with `Cc1nc(S)n(Nc2cccc(Cl)c2)c1-c1ccc(Br)cc1`, 33.2 µM. For `Cc1[nH]c(=S)n(Nc2cccc(Cl)c2)c1-c1ccccc1` the value was 66.7 µM; for `COC(=O)c1c(C)nc(S)n1Nc1cccc(Cl)c1`, 190 µM. The compound `Cc1cccc(Nn2c(S)nc(C)c2C)c1` gave a CC50 of 360 µM. Compound `Cc1cccc(Nn2c(-c3ccccc3)c(C(C)C)[nH]c2=S)c1` returned a CC50 of 42.7 µM. This CC50 lies about 8.4-fold lower than the previous one. With `Cc1ncn(Nc2cccc(Cl)c2)c1-c1cccc(C(=O)O)c1` the figure was 161 µM; with `Cc1nc(S)n(Nc2cccc(Cl)c2)c1-c1cccc(C#N)c1`, 99.3 µM.

`Cc1[nH]c(=S)n(Nc2ccccc2Cl)c1-c1ccccc1` came in with a half-maximal cytotoxic concentration (CC50) of 162 µM.

Take `Cc1ncn(Nc2ccccc2)c1C`: the CC50 is 352 µM.

`Cc1cccc(Nn2cnc(C)c2-c2ccccc2)c1` returned a cytotoxic concentration (CC50) of 27 µM.

The compound `COC(=O)c1cccc(-c2c(C)ncn2Nc2cccc(Cl)c2)c1` gave a CC50 of 33.1 µM. In the case of `Cc1ccc(Nn2c(-c3ccccc3)c(C)[nH]c2=S)cc1C`, it took 55.6 µM to reach half-maximal cytotoxicity (CC50). With `Cc1cccc(Nn2cnc(C)c2-c2cccc(N)c2)c1` the figure was 163 µM. With `COC(=O)c1c(C)ncn1Nc1cccc(Cl)c1` the figure was 107 µM; with `Sc1nc(-c2ccccc2)c(-c2ccccc2)n1Nc1cccc(Cl)c1`, 36.3 µM; with `CCc1[nH]c(=S)n(Nc2cccc(C)c2)c1-c1ccccc1`, 53.6 µM. For `COC(=O)c1nc(S)n(Nc2cccc(Cl)c2)c1C` the value was 48.8 µM. As for `Cc1nc(S)n(Nc2ccccc2)c1C`, the half-maximal cytotoxic concentration (CC50) turned out to be 181 µM. For `Cc1ncn(Nc2cccc(Cl)c2)c1C` the value was 214 µM; for `Cc1nc(S)n(Nc2cccc(Cl)c2)c1C(=O)O`, 265 µM; for `CCc1[nH]c(=S)n(Nc2cccc(Cl)c2)c1-c1ccccc1`, 39 µM. For `Cc1nc(S)n(Nc2cccc(Cl)c2)c1C` the value was 259 µM. For `Cc1ncn(Nc2ccccc2)c1-c1ccccc1` the value was 52.1 µM. Regarding `Cc1[nH]c(=S)n(Nc2ccccc2)c1-c1ccccc1`, the CC50 is 191 µM. For `Cc1cc(C)cc(Nn2c(-c3ccccc3)c(C)[nH]c2=S)c1` the value was 194 µM; for `CSc1ccc(Nn2c(S)nc(C)c2-c2ccccc2)cc1`, 53.1 µM; for `CCc1ncn(Nc2cccc(C)c2)c1-c1ccccc1`, 27.9 µM.

As to `Clc1cccc(Nn2cnc3c2CCCC3)c1`, the half-maximal cytotoxic concentration (CC50) is 67.3 µM.

Compound `Cc1cccc(Nn2cnc(C)c2-c2cccc(C#N)c2)c1` returned a CC50 of 44.7 µM.

Compound `Cc1nc(S)n(Nc2cccc(Cl)c2)c1-c1cccc(C(=O)O)c1` registered a CC50 of 120 µM. Against the preceding compound, the CC50 is about 2.7-fold higher.

`Cc1cccc(Nn2c(S)nc(C)c2-c2cccc(C(=O)O)c2)c1`: the CC50 amounted to 187 µM. As for `Cc1[nH]c(=S)n(Nc2cccc(Br)c2)c1-c1ccccc1`, it took 44.3 µM to reach half-maximal cytotoxicity (CC50).

In turn, `Cc1cccc(Nn2c(-c3ccccc3)c(C)[nH]c2=S)c1` showed a CC50 of 88.3 µM. With `Cc1nc(S)n(Nc2cc(Cl)ccc2Cl)c1-c1ccccc1` the figure was 147 µM; with `Cc1cc(C)cc(Nn2cnc(C)c2-c2ccccc2)c1`, 20.4 µM. With `COC(=O)c1cccc(-c2c(C)nc(S)n2Nc2cccc(Cl)c2)c1` the figure was 67.3 µM; with `Cc1ccc(Nn2c(-c3ccccc3)c(C)[nH]c2=S)cc1Cl`, 44.3 µM; with `CCc1ccc(Nn2c(S)nc(C)c2-c2ccccc2)cc1`, 34.4 µM. For `Cc1ncn(Nc2ccc(F)cc2)c1-c1ccccc1` the value was 30.8 µM; for `Sc1nc2c(n1Nc1cccc(Cl)c1)CCCC2`, 126 µM; for `Cc1nc(S)n(Nc2cccc(Cl)c2)c1-c1cccc(N)c1`, 42.2 µM. In turn, `Cc1[nH]c(=S)n(Nc2cccc([N+](=O)[O-])c2)c1-c1ccccc1` showed a CC50 of 48.3 µM. For `Cc1ncn(Nc2cccc(Cl)c2)c1-c1cccc(Br)c1` the value was 16.4 µM. With `COc1cccc(Nn2cnc(C)c2-c2ccccc2)c1` the figure was 34.4 µM; with `Cc1ncn(Nc2cccc(Cl)c2)c1-c1ccccc1`, 17.5 µM. With `Cc1cccc(Nn2c(S)nc(C)c2-c2cccc(C#N)c2)c1` the figure was 45.6 µM. Regarding `Cc1ncn(Nc2cccc(Cl)c2)c1-c1cccc(C#N)c1`, the CC50 was found to be 36.8 µM.

`COc1cccc(Nn2c(S)nc(C)c2-c2ccccc2)c1` gave a CC50 of 38 µM. `Cc1ncn(Nc2cccc(Cl)c2)c1-c1cccc(Cl)c1` yielded a CC50 of 11.9 µM. This CC50 is about 3.2-fold lower than that of the compound before.

`Cc1cccc(Nn2cnc(C)c2C)c1` returned a CC50 of 312 µM. This CC50 is about 26-fold higher than that of the compound before. `Cc1ncn(Nc2cccc(Cl)c2)c1-c1cccc(N)c1` registered a CC50 of 261 µM. This CC50 and that of the compound before are within 1.5-fold of each other. For the compound `Cc1[nH]c(=S)n(Nc2cccc(F)c2)c1-c1ccccc1`, the half-maximal cytotoxic concentration (CC50) stood at 109 µM.
